Measured values: patent US11389456B2, “Compounds and methods for treating oxalate-related diseases” (OxaluRx, Inc., priority 2018, dated 2022)
Values after ≈ are worked out from the molar mass of the structure shown. Where two headings read alike, the source gives them in different places.

Tests used:
[1] = Stability in human plasma; type: in vitro ADME; settings: for half-life at 2 μM: read-out: Plasma Stability T1/2
Summary of the method: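 Pooled human plasma (pH 7.4-8) at 37° C, test compound spiked from a 0.02 mM solution in phosphate buffer with 0.5% BSA. Samples taken at 0, 5, 15, 30, 45 and 60 min, quenched with acetonitrile containing internal standard, and remaining compound measured by LC/MS.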

[2] = Protein binding (plasma equilibrium dialysis); type: in vitro ADME; settings: 5 hours at 37° C.; for fraction unbound at 5 h, 1 μM: read-out: Protein Binding Fraction Bound (converted)
Summary of the method: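 Compound spiked into plasma at 1 μM final (0.2% DMSO) and dialysed against phosphate buffer for 5 hours at 37 °C with shaking. Donor and receiver samples, matrix-matched and acetonitrile-quenched with internal standard, quantified by LC/MS/MS alongside 0-hour plasma samples.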

[3] = Solubility in phosphate buffered saline (PBS), pH 7.4; type: physicochemical; settings: phosphate buffered saline pH 7.4, 1% DMSO, 1 hour shaking at room temperature
Summary of the method: (§1)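 DMSO stock (10 mM) diluted into 100 mM phosphate buffer pH 7.4, or into deionized distilled water for the aqueous assay, at 1% final DMSO and shaken 1 h at room temperature. After centrifugation, supernatants quantified by LC-MS/MS against a calibration curve with internal standard.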

[4] = Solubility in aqueous solution (deionized, distilled water); type: physicochemical; settings: 1% DMSO, read-out: Aqueous Solubility H2O
Summary of the method: as §1

[5] = target: recombinant full-length human hydroxyacid oxidase 1 (HAO1), the equivalent of hGOX (Homo sapiens (Human), UniProt Q9UJM8); test: In-vitro human glycolate oxidase (hGOX) assay (Amplex red/HRP fluorescence); type: biochemical
recombinant full-length human hydroxyacid oxidase 1 (HAO1), the equivalent of hGOX, sequence (Q9UJM8 whole entry): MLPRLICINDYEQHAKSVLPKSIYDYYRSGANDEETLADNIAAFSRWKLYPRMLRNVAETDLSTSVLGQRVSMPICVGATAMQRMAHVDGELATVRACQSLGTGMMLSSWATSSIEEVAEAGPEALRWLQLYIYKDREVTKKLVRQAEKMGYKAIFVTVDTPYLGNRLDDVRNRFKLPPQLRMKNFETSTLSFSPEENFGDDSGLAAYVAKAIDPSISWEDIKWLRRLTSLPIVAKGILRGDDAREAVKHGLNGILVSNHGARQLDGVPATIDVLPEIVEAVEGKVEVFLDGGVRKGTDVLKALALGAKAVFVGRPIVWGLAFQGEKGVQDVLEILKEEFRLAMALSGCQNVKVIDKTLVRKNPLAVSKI
Protocol: Biological Activity Assay: In-Vitro Human Glycolate Oxidase (hGOX) Assay
The in-vitro glycolate oxidase assay was performed using recombinant full-length human hydroxyacid oxidase 1 (HAO1), the equivalent of hGOX. […] Purified HAO1 was dissolved in assay buffer consisting of 10 mM NaCl, 110 mM KCl, 2 mM MgCl2, 50 mM HEPES (pH 7.4) and 0.01% Triton™ X-100.

[6] = target: glycolate oxidase (GOX) in HepaRG-CAR cells (Homo sapiens (Human), UniProt Q9UJM8); test: HepaRG-CAR cell-based assay for quantitation of glycolate oxidase inhibition (cellular glycolate flux, GC-MS)
glycolate oxidase (GOX) in HepaRG-CAR cells, sequence (Q9UJM8 whole entry): as above

[7] = Metabolic stability in human liver microsomal preparation; type: in vitro ADME; settings: human liver microsomes, NADPH, 37° C.; for CLint scaled at 1 μM / half-life at 1 μM: pH 7.4; for half-life at 1 μM: read-out: Metabolic Stability t1/2
Summary of the method: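 Compound at 1.5 μM with 0.75 mg/mL human liver microsomes (concentrations before NADPH addition) in 0.1 M potassium phosphate, 1 mM EDTA, pH 7.4 was preincubated 5 min at 37 °C, then started with NADPH. Samples at 0, 5, 15, 30 and 45 min were quenched with acetonitrile/internal standard and analysed by LC/MS.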

[8] = phosphate buffer (PBS), aqueous buffer, kinetic from dmso stock
[9] = HepaRG-CAR cells, 500 μM glycolate, 48 hours incubation, read-out: IC50

SMILES | half-life at 2 μM [1] [h] | recovery at 5 h, 1 μM [2] [%] | solubility at 1 h [3, 8] [µM] | solubility at 1 h ([4]; kinetic from dmso stock) [µM] | IC50 [5] [nM] | IC50 [6, 9] [nM] | CLint scaled at 1 μM [7] [mL/min/kg] | half-life at 1 μM ([7]; 0-45 min) [h] | fraction unbound at 5 h, 1 μM [2] | Plasma Stability T1/2 [1] [h] | Protein Binding Recovery ([2]; 1 μM) [%] | solubility at 1 h ([3]; read-out: Aqueous Solubility PBS) [µM] | solubility at 1 h [4] [µM] | IC50 ([5]; 12.5 nM HAO1, 85 μM glycolate, 2.5% DMSO, read-out: IC50) [nM] | Metabolic Stability Clint [7] [mL/min/kg] | Metabolic Stability t1/2 ([7]; 0-45 min) [h] | IC50 [6] [nM]
Cc1cc(Oc2[nH]nnc2C(=O)O)ccc1Br [Example I-037, 5-(4-Bromo-3-methylphenoxy)-1H-1,2,3-triazole-4-carboxylic acid] | 0.786 | 105 | 96.8 (≈ 28.9 µg/mL) | 96.1 (≈ 28.6 µg/mL) | 34 | 400 | < 0.15 | > 83.3 |  |  |  |  |  |  |  |  | 
CS(=O)(=O)c1ccc(-c2cccc(Oc3[nH]nnc3C(=O)O)c2)cc1 [Example I-257, 5-((4′-(Methylsulfonyl)-[1,1′-biphenyl]-3-yl)oxy)-1H-1,2,3-triazole-4-carboxylic acid] | 3.04 | 102 | 91.8 (≈ 33 µg/mL) | 89.8 (≈ 32.3 µg/mL) | 13 | 2500 | 1.53 | 19 | 0.022 |  |  |  |  |  |  |  | 
O=C(O)c1nn[nH]c1Oc1ccc(-c2ccc(Br)cc2)cc1 [Example I-154, 5-((4′-Bromo-[1,1′-biphenyl]-4-yl)oxy)-1H-1,2,3-triazole-4-carboxylic acid] | 1.85 | 98.5 | 93.7 (≈ 33.7 µg/mL) | 29.1 (≈ 10.5 µg/mL) | 5 | > 10000 | < 0.15 | > 83.3 |  |  |  |  |  |  |  |  | 
O=C(O)c1nn[nH]c1Oc1cccc(-c2ccc(Cl)c(Cl)c2)c1 [Example I-255, 5-((3′,4′-Dichloro-[1,1′-biphenyl]-3-yl)oxy)-1H-1,2,3-triazole-4-carboxylic acid] | 3.35 | 102 | 97.1 (≈ 34 µg/mL) | 81 (≈ 28.3 µg/mL) | 6 | 5000 | < 0.15 | > 83.3 |  |  |  |  |  |  |  |  | 
O=C(O)c1nn[nH]c1Oc1ccc(-c2ccccn2)cc1 [Example I-261, 5-(4-(Pyridin-2-yl)phenoxy)-1H-1,2,3-triazole-4-carboxylic acid] |  |  |  |  |  | > 10000 |  |  |  | 1.328 | 111.0 | 101.5 (≈ 28.6 µg/mL) | 105 (≈ 29.6 µg/mL) | 150 | 1.58 | 18.301 | 
COc1cccc(-c2ccc(Oc3[nH]nnc3C(=O)O)cc2)c1 [Example I-158, 5-((3′-Methoxy-[1,1′-biphenyl]-4-yl)oxy)-1H-1,2,3-triazole-4-carboxylic acid] | 4.77 | 92.5 | 106 (≈ 33 µg/mL) | 101 (≈ 31.4 µg/mL) | 8 |  | < 0.15 | > 83.3 |  |  |  |  |  |  |  |  | 5000
O=C(O)c1[nH]nnc1Oc1ccc(-c2ccc(Cl)cc2)cc1 [Example I-152, 5-((4′-Chloro-[1,1′-biphenyl]-4-yl)oxy)-1H-1,2,3-triazole-4-carboxylic acid] | 3.22 | 97.7 |  |  | 17 | 10000 |  |  |  |  |  |  |  |  |  |  | 
CCCC(C)c1cccc(Oc2[nH]nnc2C(=O)O)c1 (centres unmarked) [Example I-277] | 2.71 | 108 | 113 (≈ 31.1 µg/mL) | 97.2 (≈ 26.8 µg/mL) | 65 |  | 8.56 | 3.38 | 0.003 |  |  |  |  |  |  |  | 
O=C(O)c1nn[nH]c1Oc1cccc(-c2cc(Cl)cc(Cl)c2)c1 [Example I-302, 5-((3′,5′-Dichloro-[1,1′-biphenyl]-3-yl)oxy)-1H-1,2,3-triazole-4-carboxylic acid] | 1.67 | 104 | 112 (≈ 39 µg/mL) | 90.7 (≈ 31.7 µg/mL) | 3 |  | < 0.15 | > 83.3 | 0.017 |  |  |  |  |  |  |  | 
O=C(O)c1nn[nH]c1Sc1ccc(-c2ccccc2)cc1 [Example I-128, 5-([1,1′-Biphenyl]-4-ylthio)-1H-1,2,3-triazole-4-carboxylic acid] | 0.755 | 126 | 122 (≈ 36.4 µg/mL) | 106 (≈ 31.5 µg/mL) | 227 |  | 10.1 | 2.87 |  |  |  |  |  |  |  |  | 
CC(C)Cc1ccc(Oc2[nH]nnc2C(=O)O)cc1 [Example I-299, 5-(4-Isobutylphenoxy)-1H-1,2,3-triazole-4-carboxylic acid] | 1.22 | 114 | 104 (≈ 27.1 µg/mL) | 98.4 (≈ 25.7 µg/mL) | 33 |  | 11.3 | 2.55 | 0.002 |  |  |  |  |  |  |  | 
O=C(O)c1nn[nH]c1Oc1ccc(-c2ccccc2)cc1 [Example I-150, 5-([1,1′-Biphenyl]-4-yloxy)-1H-1,2,3-triazole-4-carboxylic acid] | 0.747 | 100 | 95.7 (≈ 26.9 µg/mL) | 83.1 (≈ 23.4 µg/mL) | 23 |  | 3.04 | 8.78 |  |  |  |  |  |  |  |  | 
O=C(O)c1nn[nH]c1Oc1cccc(S(F)(F)(F)(F)F)c1 [Example I-269, 5-(3-Pentafluorosulfanylphenoxy)-1H-1,2,3-triazole-4-carboxylic acid] | 2.19 | 91.8 | 109 (≈ 36 µg/mL) | 103 (≈ 34.2 µg/mL) | 105 |  | < 0.15 | > 83.3 | 0.01 |  |  |  |  |  |  |  | 
C#Cc1cccc(Oc2[nH]nnc2C(=O)O)c1 [Example I-288, 5-(3-ethynylphenoxy)-1H-1,2,3-triazole-4-carboxylic acid] | 1.96 | 110 | 92.4 (≈ 21.2 µg/mL) | 80.6 (≈ 18.5 µg/mL) | 24 |  | 3.11 | 9.31 | 0.025 |  |  |  |  |  |  |  | 
